Patent US8680152B2, “Cathepsin inhibitors for the treatment of bone cancer and bone cancer pain” (Virobay, Inc., priority 2011, dated 2014)

Assays:
[1] = target: T1, cathepsin S (Mus musculus, UniProt O70370); experiment: Cathepsin S enzyme across species: mouse; format: biochemical
[2] = target: cathepsin S enzyme (Rattus norvegicus, UniProt Q02765); experiment: Cathepsin S enzyme across species: rat; format: biochemical
[3] = Pharmacokinetic profile in mice; format: in vivo
Procedure: (§1) FIG. 4. Pharmacokinetics of Compound A. FIG. 4a: Compound A pharmacokinetic profile in mice and rats. FIG. 4b. Single dose pharmacokinetics in the mouse following intravenous (1 mg/kg) and oral doses (5 mg/kg). Plasma concentration values vs. time.

[4] = system: multiple human cathepsin enzymes; experiment: Cathepsin inhibitory profile on multiple cathepsin enzymes; format: biochemical
Source text: FIG. 1. […] Methods are similar to those set forth in the Biological Examples.

[5] = system: tumor invasion; experiment: In vitro bioassay for tumor invasiveness; format: cell-based
[6] = target: T1, cathepsin S; experiment: Accumulation of lip10 biomarker in spleen after dosing; format: in vivo; design: from tissue; host or cells: mouse spleen (in vivo dosing); conditions: mice, 10 mg/kg
Procedure: (§2) FIG. 2. […] An activity-based probe assaying using 125-I labeled DMK reagent to assess the ability of Compound A to inhibit cathepsin L and cathepsin B protease activity in cells. In this assay human umbilical […] endothelial cells (HUVEC) are dosed with the indicated concentrations of Compound A in vitro. They are then incubated with the 125-I labeled activity probe for a short time, a cellular lysate produced, and the proteins analyzed biochemically by SDS PAGE. The gels are then imaged by autoradiography and the inhibition of protease activity, as assessed by the inhibition of activity probe binding, can be detected. FIG. 2b: Compound A inhibition of cathepsin S activity in the spleen in vivo as a function of time after dosing and plasma levels following a 10 mg/kg dose of the agent. […] The accumulation of the lip10 biomarker was tracked in spleen tissue samples taken from the treated animal. Accordingly, FIG. 2b. is based upon an assay which detects the accumulation of a proteolytic substrate of cathepsin S, the p10 fragment of invariant chain shown here as lip10, following dosing of Compound A in mice at 10 mg/kg/3 mice per time points are dosed with Compound A for the indicated times, and the spleens harvested and frozen. The level of lip10, an indicator cathepsin S inhibition is then detected using SDS PAGE and western blotting in lysates produced from the spleens. […]

[7] = Pharmacokinetic profile in rats; format: in vivo
Procedure: as §1

[8] = system: angiogenesis; experiment: In vitro bioassay for angiogenesis; format: cell-based
[9] = target: cathepsin L (Homo sapiens, UniProt P07711); experiment: Activity-based probe (125-I labeled DMK) assay in HUVEC, cathepsin L; format: cell-based; design: endogenous in cells; host or cells: HUVEC
cathepsin L, sequence (P07711 114-333): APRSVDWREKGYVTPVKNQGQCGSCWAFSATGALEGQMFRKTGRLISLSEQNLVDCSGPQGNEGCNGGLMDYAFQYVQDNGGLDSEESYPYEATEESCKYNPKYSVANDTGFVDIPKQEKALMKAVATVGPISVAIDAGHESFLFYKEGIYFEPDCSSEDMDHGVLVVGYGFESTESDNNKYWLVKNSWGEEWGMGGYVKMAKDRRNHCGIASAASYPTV
Procedure: as §2

[10] = target: cathepsin B (Homo sapiens, UniProt P07858); experiment: Activity-based probe (125-I labeled DMK) assay in HUVEC, cathepsin B; format: cell-based; design: endogenous in cells; host or cells: HUVEC
Procedure: as §2

[11] = target: cathepsin S enzyme (Canis lupus familiaris, UniProt Q8HY81); experiment: Cathepsin S enzyme across species: dog; format: biochemical
cathepsin S enzyme (Canis lupus familiaris, UniProt Q8HY81), sequence (Q8HY81 115-331): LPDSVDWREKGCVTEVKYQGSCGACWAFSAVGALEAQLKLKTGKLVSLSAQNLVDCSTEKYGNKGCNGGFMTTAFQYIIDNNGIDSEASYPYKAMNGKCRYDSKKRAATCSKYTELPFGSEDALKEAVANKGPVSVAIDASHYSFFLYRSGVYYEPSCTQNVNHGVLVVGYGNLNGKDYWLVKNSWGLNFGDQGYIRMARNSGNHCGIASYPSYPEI

[12] = system: 66.1 cancer cells in the bone; experiment: Bone cancer pain study (breast cancer cells implanted in femur); format: in vivo, mice
Procedure: FIG. 3: Bone cancer and bone cancer pain study with Compound A. FIG. 3a: Protocol. Bone cancer pain study with Compound A. Dose groups: Vehicle, Zoledronate (100 μg/kg ) positive control, Compound A (100 mg/kg, daily dosing, SC, days 7-21), 10 animals per group Control animals were injected with media (and no tumor cells) in the femur. FIGS. 3b-3d. Left to right: Sham/media +Compound A, Cancer +vehicle, cancer +zoledronate, cancer +Compound A. FIG. 3b: Effects on bone destruction. […] Spontaneous Pain in the form of Flinching was attenuated by Compound Aon day 14 and day 21 with statistical significance, as compared to vehicle. […] Movement evoked pain was attenuated by Compound A on day 13 with statistical significance as compared to vehicle.
FIG. 6. Histology Analysis of Bone Samples in Bone Caner Pain Study. Representative bone sections from the study described in FIG. 3A were subjected to staining with the standard hematoxylin and eosin histological stain to visualize cellular structures in the bone. In FIG. 6, the pitting of the bone is shown and indicated from samples in the study arm with 66.1 cancer cells in the bone and dosed with vehicle control only, which is due to ostelytic activity induced by the presence of the 66.1 cancer cells in the bone.
FIG. 3a sets forth the treatment protocol for the bone cancer pain study with Compound A. Dose groups: Vehicle, Zoledronate (100 μg/kg) positive control, Compound A (100 mg/kg, daily dosing, SC, days 7-21), 10 animals per group. Mice were implanted with breast cancer cells in the femur on day 0 and treated with Compound A on days 7 through 21. On days 0, 7, 14, and 21 radiographic imaging, thermal hyperalgesia, tactile allodynia, movement-evoked and spontaneous pain measurements were taken. Pain measurements were made 6 hours after dosing. Control animals were injected with media (and no tumor cells) in the femur. […] Bone destruction was attenuated by Compound A on day 14 and day 21 as compared to vehicle. The efficacy was similar to that obtained with zoledronate (see, FIG. 3b). […] Spontaneous Pain in the form of Flinching was attenuated by Compound A on day 14 and day 21 with statistical significance, as compared to vehicle (see, FIG. 3d). […] Movement evoked pain was attenuated by Compound A on day 13 with statistical significance as compared to vehicle (see, FIG. 3e).
Compound A was dosed subcutaneously, at a 100 mg/kg dose once a day, in a nanoparticle-sized formulation suitable for subcutaneous dosing and diluted in D5W (sterile 5% dextrose in water). Dosing was initiated 7 days after the femur implantation of the 66.1 tumor cells and continued once a day.
The data in FIG. 6 is based on representative bone sections from the study described in FIG. 3A, which were subjected to staining with the standard histological stain hematoxylin and eosin, in order to visualize cellular structures in the bone. Visualized samples include bone sections from study animals with 66.1 tumor cells injected into bone and dosed with either vehicle control or compound A and also animals with media alone injected into bone and also dosed with compound A. Normal hemapoetic cells of the bone and the 66.1 cancer cells within the bone, as well as bone histomorphology, were visualized by this staining procedure. […] This is due to ostelytic activity induced by the presence of the 66.1 cancer cells in the bone.

[13] = system: cathepsin S-dependent invariant chain processing; experiment: Cathepsin S-dependent invariant chain processing in Raji B cells; format: cell-based; conditions: Homo sapiens, read-out: inhibition of cathepsin S-dependent invariant chain processing IC50
[14] = day 14 and day 21, 100 mg/kg, daily, SC, compared to vehicle

cathepsin S enzyme (Rattus norvegicus, UniProt Q02765), sequence (Q02765 113-330): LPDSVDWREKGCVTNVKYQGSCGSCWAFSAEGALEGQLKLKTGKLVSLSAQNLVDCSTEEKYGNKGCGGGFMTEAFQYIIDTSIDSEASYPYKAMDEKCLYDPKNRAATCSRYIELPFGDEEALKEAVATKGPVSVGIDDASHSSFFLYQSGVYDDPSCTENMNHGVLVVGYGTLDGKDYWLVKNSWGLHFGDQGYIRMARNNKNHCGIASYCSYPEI

IC50 [1]: < 0.25 nM
IC50 [2]: 0.77 nM
pharmacokinetics [3]: very favorable pharmacokinetics
cathepsin inhibitory profile on multiple cathepsin enzymes [4]: very high potency and selectivity
activity in vivo as judged by accumulation of a biomarker (lip10) in the spleen [6]: active in vivo
pharmacokinetics [7]: very favorable pharmacokinetics
inhibition of cathepsin L activity in endothelial cells, potency [9]: single digit nanomolar potency
inhibition of cathepsin B activity in endothelial cells, potency [10]: single digit nanomolar potency
IC50 [11]: 0.25 nM
IC50 [13]: < 10 nM
Structure (SMILES): CC[C@H](NC(=O)[C@H](CS(=O)(=O)CC1CC1)N[C@@H](c1ccc(F)cc1)C(F)(F)F)C(=O)C(=O)NC1CC1 [Compound A, (S)—N-cyclopropyl-3-((R)-3-((cyclopropylmethyl)sulfonyl)-2-(((S)-2,2,2-trifluoro-1-(4-fluorophenyl)ethyl)amino)propanamido)-2-oxopentanamide]
tumor invasion [5]: inhibited
angiogenesis [8]: inhibited
bone pitting (histology, hematoxylin and eosin) ([12]; 100 mg/kg SC once a day, nanoparticle-sized formulation in D5W): reduced
effect after drug washout ([12]; after 7 days of drug washout): without any significant effect
movement evoked pain ([12]; day 13, 100 mg/kg, daily, SC, compared to vehicle): attenuated
bone destruction [12, 14]: attenuated
spontaneous pain in the form of Flinching [12, 14]: attenuated
spontaneous pain in the form of Guarding ([12]; day 14 and day 21, 100 mg/kg, daily, SC, compared to vehicle or zoledronate): attenuated
body weight ([12]; day 21, 100 mg/kg, daily, SC, days 7-21, compared to vehicle): retained weight as compared to vehicle
